Assay results as given in US20250222109A1, “STRUCTURED LIPID COMPOSITIONS” (Universität Bern, priority 2022, published 2025).
Where a name gives a salt, the structure may show the parent alone.

What was measured:
[1] = SAXS phase identification of MLO-water mesophases (TIF-Gel); type: physicochemical
Method: SAXS measurements were used to determine the phase identity and symmetry of the produced LMPs. Measurements were performed on a Bruker AXS Micro, with a microfocused X-ray source, operating at voltage and filament current of 50 kV and 1000 μA, respectively. The Cu Kα radiation (λCu Kα=1.5418 Å) was collimated by a 2D Kratky collimator, and the data were collected by a 2D Pilatus 100K detector. The scattering vector Q=(4π/λ) sin θ, with 2θ being the scattering angle, was calibrated using silver behenate. Data were collected and azimuthally averaged using the Saxsgui software to yield 1D intensity vs. scattering vector Q, with a Q range from 0.001 to 0.5 Å^−1. For all measurements the samples were placed inside a stainless-steel cell between two thin replaceable mica sheets and sealed by an O-ring, with a sample volume of 10 μL and a thickness of ˜1 mm. Measurements were performed at 25° C., 30° C., 34° C., 36° C. and 38° C. Samples were equilibrated for 10 min before measurements whereas scattered intensity was collected over 30 min and over 60 min in case of lamellar phase. On the other hand, for the kinetic study, the sample was pre equilibrated at 25° C. and inserted in the sample holder kept at 38° C. and the scattered intensity collected over 5 min. To determine the structural parameters such as the size of the water channels, SAXS data information on the lattice were combined with the composition of the samples (R. Mezzenga, et al., Shear rheology of lyotropic liquid crystals: a case study, Langmuir 21, 3322-3333 (2005)).
MLO was used as the lipid component of the mesophases and mixed with weighed amounts of drugs (10% w/w) in sealed Pyrex tubes and alternatively centrifuging (10 min, 5000 g) several times at room temperature until a homogenous mixture was obtained. The mesophase was then equilibrated for 48 h at room temperature in the dark (see, FIGS. 1A and 1B).
Firstly, small angle X-ray scattering (SAXS) measurements were used to determine the optimal amount of water needed to obtain a lamellar phase which provides a transition to a cubic at 38° C. (FIGS. 2B and 2C). The X-ray beam directed at the gel results in a scattering pattern with a set of maxima, that correspond to sharp Bragg reflections characteristic of the long-range positional order. The sequence of Bragg reflections (and their ratio; listed in FIG. 2A) identifies the symmetry of the mesophase studied (See also FIGS. 1A and 1B).

[2] = Drug encapsulation and distribution in TIF-Gel (WAXS, HPLC of gel layers); type: physicochemical
Method: The tube was centrifuged and kept at rest for 24 hours. Subsequently, the gel was divided into 3 different layers (Top, Middle, and Bottom), and the drug content evaluated in each by HPLC.
WAXS measurements were performed on a Bruker AXS Micro, with a microfocused X-ray source, operating at voltage and filament current of 50 kV and 1000 μA, respectively. The Cu Kα radiation (λCu Kα=1.5418 Å) was collimated by a 2D Kratky collimator, and the data were collected by a 2D Pilatus 100K detector. The scattering vector Q=(4π/λ) sin θ, with 2θ being the scattering angle, was calibrated using silver behenate. Data were collected and azimuthally averaged using the Saxsgui software to yield 1D intensity vs. scattering vector Q, with a Q range from 13 to 18 nm-1. For all measurements the samples were placed inside a stainless-steel cell between two thin replaceable mica sheets and sealed by an O-ring, with a sample volume of 10 μL and a thickness of ˜1 mm.
The TAC loaded mesophase composition comprised: a) a carrier comprising: a1) water in an amount of 16% by weight of the carrier; and a2) MLO in an amount of 84% by weight of the carrier; and b) TAC in an amount of 1% by weight of the composition.

[3] = Stability study of TAC and TOFA-loaded TIF-Gel (HPLC); type: physicochemical; details: 4° C. and 25° C., one-month period
Method: The TAC and TOFA-loaded TIF-Gels were prepared according to Example 1. […] The TAC-loaded TIF-Gel composition comprised a) a carrier comprising: a1) water in an amount of 16% by weight of the carrier; and a2) MLO in an amount of 84% by weight of the carrier; and b) TAC in an amount of 1% by weight of the composition. […] At specific time points, an aliquot of the formulation was analysed at the HPLC, and the content of the drug was recorded. Data are expressed as relative percentage referred to day 0.

[4] = SAXS phase identification of MLO-water mesophases (TIF-Gel); type: physicochemical; details: 5 mg of TOFA and 1 mg of TAC in 100 mg of gel
[5] = In vitro release of TOFA and TAC from TIF-Gel, vertical diffusion cells; type: physicochemical; details: HEPES pH 7.4, 37° C., 8 h
From the text: In the in vitro release experiments, drug-loaded TIF-Gel formulations were placed in the donor chamber of a vertical diffusion cell (as depicted in FIG. 3G) and kept separated from the acceptor chamber by a polycarbonate membrane with pore diameter of 3 μm, which allows the passage of the free drugs only.

[6] = tested on: dextran sulfate sodium (DSS)-induced acute colitis; assay: Chemically induced colitis based on application of DSS; type: in vivo, mice
From the text: Female 6-8 week-old C57B/6J Mice (ex. Charles River Germany) were maintained under specific and opportunistic pathogen-free (SOPF) microbiota conditions at the animal facility of the University of Bern. Mice were ear marked, randomly assigned to different cages and treatment groups, and bedding mixed between all cages to avoid potential cage effects on microbiota. All methods used were approved by the Bernese animal welfare authority (permission no. BE 20/18). […] The next day, mouse drinking water was supplemented with 2% w/v dextran sodium sulfate (DSS; MP Biomedicals, 160110). Every other day, the different compounds were applied intra-rectally until the end of the experiment. During the experiment, the mice were constantly monitored and the weight and disease scores were recorded when appropriate. Disease score was determined by grading of 1-4 of the following criteria (with grade 4 corresponding to most unhealthy/abnormal): posture, mobility, fur appearance, weight, stool consistency, and stool colour (L. F. Mager, et al., The ESRP1-GPR137 axis contributes to intestinal pathogenesis, Elife 6 (2017), doi: 10.7554/eLife.28366.). […]
The gating strategy was adapted from the inventors previously published work (S. E. Liyanage, et al., Flow cytometric analysis of inflammatory and resident myeloid populations in mouse ocular inflammatory models, Exp. Eye Res. 151, 160-170 (2016)). […] Splenocytes were quantified using a CASY cell counter (Omni Life Sciences) and the following populations were quantified following single cell and live/dead selection (Thermofischer, L34961). […] Stained cells were analysed on a BD Bioscience LSR II SORP flow cytometer.
DSS is toxic to epithelial cells and its application compromises the integrity of the intestinal barrier, thereby leading to activation of submucosal immune cells by intestinal microbes. Through experimentation, it was determined that bi-daily application of the gel yielded robust mitigation of local and systemic inflammation.

[7] = rectal, every other day, vs empty TIF-Gel

Structure (SMILES)	phase identity (SAXS) ([1]; 12% of water, 25° C. and 38° C.)	phase identity (SAXS) ([1]; 14% of water, 25° C.)	phase identity (SAXS) ([1]; 14% of water, 38° C.)	phase identity (SAXS) ([1]; 16% w/w of water and 84% w/w of MLO, 25° C.)	phase identity (SAXS) ([1]; 16% w/w of water and 84% w/w of MLO, 38° C.)	temperature of the L→Q transition ([1]; 18% w/w of water)	phase transition in the presence of lipase ([1]; lipase 1000 U/mL)	time of conversion of precursor L phase into the cubic phase ([1]; once applied into the rectum)	distribution of drug in the gel matrix ([2]; Top, Middle and Bottom gel layers, HPLC)	drug crystallisation in the gel (WAXS) ([2]; embedded in the 3D gel structure)	encapsulation efficacy ([2]; encapsulated in the TIF-Gel)	long-term stability of drug loaded into TIF-gel (drug content by HPLC) [3]	effect of drug on phase identity and transition temperature of the gel ([1]; 10% w/w of drug, lamellar at room temperature, cubic (Ia3d) at 38° C.)	effect of drug entrapment on phase identity and thermal behaviour of the carrier gel [4]	drug release from the gel vs free drug, in vitro [5]	local pro-inflammatory cytokine levels ([6]; colon tissue)	disease score / disease severity [6, 7]	weight loss [6, 7]
CCCCC/C=C\C/C=C\CCCCCCCC(=O)OCC(O)CO (stereo not drawn) [MLO, 2,3-dihydroxypropyl(9Z,12Z)-9,12-octadecadienoate]	L phase	lamellar structure	coexistence of L and Q structure (with a Ia3d geometry)	lamellar structure	Q structure (with a Ia3d geometry)	30 °C	Q→Hexagonal phase (H)	< 5 min	–	–	–	–	–	–	–	–	–	–
C[C@@H]1CCN(C(=O)CC#N)C[C@@H]1N(C)c1ncnc2[nH]ccc12 [TOFA, Tofacitinib citrate]	–	–	–	–	–	–	–	–	homogeneously distributed	do not form crystals	100%	stable	did not affect the phase identity and the transition temperature	did not affect the phase identity and thermal behaviour	decreased the release rate	reduced	did not improve the disease score	improving weight loss
